Measurements reported in PubChem BioAssay AID248 (DTP/NCI, 2004).
Several values for one entry are separate records, joined by “and”; a condition that tells them apart may be missing. Equal values may be shown once. Toxic doses and inconclusive results are not listed. Rule as the data show it: active = T/C of 150% or more; inactive = T/C below 125%.

System: L1210 leukemia ip in BDF1 mice, survival T/C
Assay: NCI In Vivo Anticancer Drug Screen. Data for tumor model L1210 Leukemia (intraperitoneal) in B6D2F1 (BDF1) mice
Conditions: endpoint: mean survival time, higher = longer survival
How it was run: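 Each compound was tested against a transplantable tumor grown in mice. The endpoint was survival, with treated animals benchmarked against vehicle controls as a simple ratio.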

[1] = dose: 50.0 mg/kg/injection, schedule: Q01DX001 (ip), vehicle: saline
[2] = dose: 100.0 mg/kg/injection, schedule: Q01DX001 (ip), vehicle: saline
[3] = dose: 200.0 mg/kg/injection, schedule: Q01DX001 (ip), vehicle: saline
[4] = dose: 400.0 mg/kg/injection, schedule: Q01DX001 (ip), vehicle: saline
[5] = dose: 100.0 mg/kg/injection, schedule: Q01DX001 (ip), vehicle: carboxymethylcellulose (CMC)
[6] = dose: 200.0 mg/kg/injection, schedule: Q01DX001 (ip), vehicle: carboxymethylcellulose (CMC)
[7] = dose: 400.0 mg/kg/injection, schedule: Q01DX001 (ip), vehicle: carboxymethylcellulose (CMC)
[8] = dose: 100.0 mg/kg/injection, schedule: Q04DX003 (ip), vehicle: Klucel (hydroxypropylcellulose) (HPC)
[9] = dose: 200.0 mg/kg/injection, schedule: Q04DX003 (ip), vehicle: Klucel (hydroxypropylcellulose) (HPC)
[10] = dose: 400.0 mg/kg/injection, schedule: Q04DX003 (ip), vehicle: Klucel (hydroxypropylcellulose) (HPC)
[11] = dose: 100.0 mg/kg/injection, schedule: Q01DX009 (ip), vehicle: saline with Tween-80
[12] = dose: 100.0 mg/kg/injection, schedule: Q04DX003 (ip), vehicle: saline with Tween-80
[13] = dose: 200.0 mg/kg/injection, schedule: Q01DX009 (ip), vehicle: saline with Tween-80
[14] = dose: 200.0 mg/kg/injection, schedule: Q04DX003 (ip), vehicle: saline with Tween-80
[15] = dose: 400.0 mg/kg/injection, schedule: Q01DX009 (ip), vehicle: saline with Tween-80
[16] = dose: 400.0 mg/kg/injection, schedule: Q04DX003 (ip), vehicle: saline with Tween-80
[17] = dose: 100.0 mg/kg/injection, schedule: Q01DX009 (ip), vehicle: carboxymethylcellulose (CMC)
[18] = dose: 100.0 mg/kg/injection, schedule: Q04DX002 (ip), vehicle: carboxymethylcellulose (CMC)
[19] = dose: 100.0 mg/kg/injection, schedule: Q04DX003 (ip), vehicle: carboxymethylcellulose (CMC)
[20] = dose: 200.0 mg/kg/injection, schedule: Q01DX009 (ip), vehicle: carboxymethylcellulose (CMC)
[21] = dose: 200.0 mg/kg/injection, schedule: Q04DX002 (ip), vehicle: carboxymethylcellulose (CMC)
[22] = dose: 200.0 mg/kg/injection, schedule: Q04DX003 (ip), vehicle: carboxymethylcellulose (CMC)
[23] = dose: 400.0 mg/kg/injection, schedule: Q01DX009 (ip), vehicle: carboxymethylcellulose (CMC)
[24] = dose: 400.0 mg/kg/injection, schedule: Q04DX002 (ip), vehicle: carboxymethylcellulose (CMC)
[25] = dose: 400.0 mg/kg/injection, schedule: Q04DX003 (ip), vehicle: carboxymethylcellulose (CMC)
[26] = dose: 100.0 mg/kg/injection, schedule: Q01DX001 (ip), vehicle: saline with Tween-80
[27] = dose: 200.0 mg/kg/injection, schedule: Q01DX001 (ip), vehicle: saline with Tween-80
[28] = dose: 400.0 mg/kg/injection, schedule: Q01DX001 (ip), vehicle: saline with Tween-80

Measured: T/C

NC(=O)C1=CNCCC1
inactive: dose: 6.25 mg/kg/injection, schedule: Q01DX001 (ip), vehicle: saline 98 % of control | dose: 12.5 mg/kg/injection, schedule: Q01DX001 (ip), vehicle: saline 104 % of control | dose: 25.0 mg/kg/injection, schedule: Q01DX001 (ip), vehicle: saline 101 % of control | [1] 93 % of control and 118 % of control | [2] 114 % of control | [3] 109 % of control | [4] 118 % of control

O=C(N/N=C/c1ccccc1O)C(O)(c1ccccc1)c1ccccc1
inactive: [5] 101 % of control | [6] 97 % of control | [7] 97 % of control

O=C1c2ccccc2-c2cc(Cl)cc(Cl)c21
inactive: [5] 95 % of control | [6] 96 % of control | [7] 102 % of control

CCc1c(N)nc(=O)[nH]c1C(=O)O
inactive: dose: 100.0 mg/kg/injection, schedule: Q01DX001 (ip), vehicle: Klucel (hydroxypropylcellulose) (HPC) 115 % of control | [8] 96 % of control | dose: 200.0 mg/kg/injection, schedule: Q01DX001 (ip), vehicle: Klucel (hydroxypropylcellulose) (HPC) 118 % of control | [9] 100 % of control | dose: 400.0 mg/kg/injection, schedule: Q01DX001 (ip), vehicle: Klucel (hydroxypropylcellulose) (HPC) 117 % of control | [10] 104 % of control

O=C1CCC(N2C(=O)C3C4CCC(O4)C3C2=O)C(=O)O1 (stereo unspecified)
inactive: dose: 100.0 mg/kg/injection, schedule: Q04DX002 (ip), vehicle: saline 102 % of control | dose: 200.0 mg/kg/injection, schedule: Q04DX002 (ip), vehicle: saline 94 % of control | dose: 400.0 mg/kg/injection, schedule: Q04DX002 (ip), vehicle: saline 91 % of control

O=C(NCc1cnccn1)c1ccccc1Cl
inactive: [11] 86 % of control | [12] 96 % of control | [13] 104 % of control | [14] 96 % of control | [15] 102 % of control | [16] 104 % of control

CCCCN(CCCC)c1ccc(/C=C/c2ccnc3ccccc23)cc1
inactive: [17] 101 % of control and 103 % of control | [18] 102 % of control | [19] 97 % of control | [6] 92 % of control | [20] 101 % of control and 104 % of control | [21] 108 % of control | [22] 100 % of control | [23] 101 % of control and 103 % of control | [24] 102 % of control | [25] 97 % of control | dose: 800.0 mg/kg/injection, schedule: Q01DX001 (ip), vehicle: carboxymethylcellulose (CMC) 92 % of control | dose: 1600.0 mg/kg/injection, schedule: Q01DX001 (ip), vehicle: carboxymethylcellulose (CMC) 88 % of control

CCCCN1C(=O)c2cccnc2C1=O
inactive: dose: 75.0 mg/kg/injection, schedule: Q04DX003 (ip), vehicle: Klucel (hydroxypropylcellulose) (HPC) 102 % of control | [26] 103 % of control | [12] 103 % of control | dose: 150.0 mg/kg/injection, schedule: Q04DX003 (ip), vehicle: Klucel (hydroxypropylcellulose) (HPC) 96 % of control | [27] 97 % of control | dose: 300.0 mg/kg/injection, schedule: Q04DX003 (ip), vehicle: Klucel (hydroxypropylcellulose) (HPC) 95 % of control | [28] 93 % of control | [16] 95 % of control

Clc1cccc(Cl)c1/C=N/Nc1nnc(N/N=C/c2c(Cl)cccc2Cl)c2ccccc12
inactive: [1] 103 % of control | [2] 100 % of control | [3] 100 % of control | [4] 103 % of control

Cc1cnc(SCc2ccc(Cl)cc2)nc1N(C)C
inactive: dose: 25.0 mg/kg/injection, schedule: Q01DX Z (ip), vehicle: methylcellulose (MC) 90 % of control | dose: 50.0 mg/kg/injection, schedule: Q01DX Z (ip), vehicle: methylcellulose (MC) 100 % of control

COc1ccccc1NC(=O)CC(=O)c1ccc([N+](=O)[O-])cc1
inactive: dose: 100.0 mg/kg/injection, schedule: Q01DX009 (ip), vehicle: saline sonified 103 % of control | [8] 101 % of control | dose: 200.0 mg/kg/injection, schedule: Q01DX009 (ip), vehicle: saline sonified 100 % of control | [9] 105 % of control | dose: 400.0 mg/kg/injection, schedule: Q01DX009 (ip), vehicle: saline sonified 103 % of control | [10] 98 % of control

Cc1[nH]c2c(O)ccc(O)c2c1C
inactive: [2] 106 % of control | [3] 97 % of control | [4] 106 % of control

O=S(=O)(/N=C1C=C/C(=N\S(=O)(=O)c2ccccc2)C(Sc2ccccc2)=C\1)c1ccccc1
inactive: [26] 91 % of control | [27] 94 % of control | [28] 105 % of control

Cn1ccoc1=NC1CCCCC1
inactive: [12] 96 % of control | [14] 95 % of control

C[N+]12C(=O)CC3OCC=C4C[N+]5(C)CCC6(c7ccccc71)C2C3C4CC65O (stereo unspecified)
inactive: dose: 9.5 mg/kg/injection, schedule: Q01DX001 (ip), vehicle: other 92 % of control | dose: 19.0 mg/kg/injection, schedule: Q01DX001 (ip), vehicle: other 101 % of control

C[n+]1ccc(/C=C\c2ccc3c(c2)OCO3)cc1
inactive: dose: 75.0 mg/kg/injection, schedule: Q01DX001 (ip), vehicle: saline 100 % of control

CCCCCCc1cc(N=Nc2ccc(S(=O)(=O)Nc3nnc(C)s3)cc2)c(O)cc1O
inactive: [5] 98 % of control | [6] 95 % of control

CCCCCN(CCCCC)C(=O)CCCC
inactive: [5] 115 % of control | [17] 93 % of control and 97 % of control | [18] 101 % of control and 105 % of control | [19] 97 % of control | [6] 101 % of control | [20] 100 % of control and 102 % of control | [21] 98 % of control and 103 % of control | [22] 95 % of control | [7] 100 % of control | [23] 97 % of control and 86 % of control | [24] 98 % of control and 87 % of control | [25] 100 % of control

ClCc1csc(-c2ccccc2)n1
inactive: [11] 115 % of control | [13] 94 % of control | [15] 92 % of control

O=C1OCCN1CCO
inactive: dose: 100.0 mg/kg/injection, schedule: Q04DX003 (ip), vehicle: saline 97 % of control | dose: 200.0 mg/kg/injection, schedule: Q04DX003 (ip), vehicle: saline 102 % of control | dose: 400.0 mg/kg/injection, schedule: Q04DX003 (ip), vehicle: saline 108 % of control
